The values that follow come from patent publication US11464770B2, “Anticancer pharmaceutical composition” (NATIONAL CANCER CENTER, priority 2016, dated 2022).

Like-named read-outs stand apart in the source and are kept apart here.

This assay has as its system colorectal cancer cell lines (e.g. DLD-1, HCT 116, SW620, HCT-15, HCT-8, RKO). Briefly: Cell based assay, cell viability (CellTiter-Glo), colorectal cancer cell lines. On the procedure:
Commercially available bladder cancer, prostate cancer, lung cancer, breast cancer, blood cancer, pancreatic cancer, colorectal cancer, brain cancer, neuroblastoma, melanoma, liver cancer, cervical carcinoma, ovarian cancer, renal cancer, and papilloma cell lines were each treated with trypsin-EDTA and cultured, followed by being seeded in each well of a 96 well plate. After 24 hours of treatment at constant temperature, the respective cells were treated with the candidate compound so that a final concentration became 0 to 2 μM. The treated cells were additionally cultured for 72 hours, and cell viability was measured by using an ATP detection method (CellTiter-Glo® Luminescent Cell Viability Assay, Promega).

Where [1] appears, read: Homo sapiens, DLD-1, 72 hours treatment, read-out: IC50, colorectal cancer cell line DLD-1.
Setting [2] is: Homo sapiens, HCT 116, 72 hours treatment, read-out: IC50, colorectal cancer cell line HCT 116.
Where [3] appears, read: Homo sapiens, HCT-8, 72 hours treatment, read-out: IC50, colorectal cancer cell line HCT-8.
Setting [4] is: Homo sapiens, HCT-15, 72 hours treatment, read-out: IC50, colorectal cancer cell line HCT-15.
Where [5] appears, read: Homo sapiens, HT-29, 72 hours treatment, read-out: IC50, colorectal cancer cell line HT-29.
Setting [6] is: Homo sapiens, LoVo, 72 hours treatment, read-out: IC50, colorectal cancer cell line LoVo.
The mark [7] stands for this setting: Homo sapiens, SW480, 72 hours treatment, read-out: IC50, colorectal cancer cell line SW480.
[8] abbreviates: Homo sapiens, SW-620, SW620, 72 hours treatment, read-out: IC50, colorectal cancer cell line SW620.
[9] abbreviates: RKO, 72 hours treatment, read-out: IC50, colorectal cancer cell line RKO.

As for `CC(=O)c1c(S(C)(=O)=O)n(C(=O)c2ccc(Br)cc2)c2c(Br)ccc(Cl)c2c1=O` [Compound 21, 3-acetyl-8-bromo-1-(4-bromobenzoyl)-5-chloro-2-(methylsulfonyl)quinolin-4(1H)-one], the IC50 under setting [1] was greater than 2 µM; the IC50 under setting [2] is greater than 2 µM; the IC50 under setting [3] was greater than 2 µM; the IC50 under setting [4] was greater than 2 µM; the IC50 under setting [5] is greater than 10 µM; the concentration for half-maximal inhibition (IC50) under setting [6] is greater than 2 µM. Also, the IC50 was greater than 2 µM under setting [7], greater than 2 µM under setting [8] and greater than 2 µM under setting [9].
Regarding `CC(=O)c1c([S+](C)[O-])n(Cc2ccc(F)c(Cl)c2)c2c(Br)ccc(Cl)c2c1=O` (stereo not drawn) [Compound 22, 3-acetyl-8-bromo-5-chloro-1-(3-chloro-4-fluorobenzyl)-2-(methylsulfinyl)quinolin-4(1H)-one], the IC50 is, setting by setting: under setting [1], greater than 2 µM; under setting [2], greater than 2 µM; under setting [3], greater than 2 µM; under setting [4], greater than 2 µM; under setting [5], greater than 10 µM; under setting [6], greater than 2 µM. The IC50 is, setting by setting: under setting [7], greater than 2 µM; under setting [8], greater than 2 µM; under setting [9], greater than 2 µM.
Turning to `CC(=O)c1c(SCc2ccccc2)n(C(=O)c2ccc(Br)cc2)c2c(Br)ccc(Cl)c2c1=O` [Compound 23, 3-acetyl-2-(benzylthio)-8-bromo-1-(4-bromobenzoyl)-5-chloroquinolin-4(1H)-one], the IC50 by setting is: under setting [1], greater than 2 µM; under setting [2], greater than 2 µM; under setting [3], greater than 2 µM; under setting [4], greater than 2 µM; under setting [5], greater than 10 µM; under setting [6], greater than 2 µM. The IC50 is greater than 2 µM under setting [7], greater than 2 µM under setting [8] and greater than 2 µM under setting [9].
Take `CC(=O)c1c(SC(C)C)[nH]c2c(Br)ccc(Cl)c2c1=O` [Compound 24, 3-acetyl-8-bromo-5-chloro-2-(isopropylthio)quinolin-4(1H)-one]: the IC50 was greater than 2 µM under setting [1]; greater than 2 µM under setting [2]; greater than 2 µM under setting [3]; greater than 2 µM under setting [4]; greater than 10 µM under setting [5]; greater than 2 µM under setting [6]. In addition, the 50% inhibitory concentration (IC50) was greater than 2 µM under setting [7], greater than 2 µM under setting [8] and greater than 2 µM under setting [9].
In the case of `CC(=O)c1c([S+]([O-])C(C)C)[nH]c2c(Br)ccc(Cl)c2c1=O` (stereo not drawn) [Compound 25, 3-acetyl-8-bromo-5-chloro-2-(isopropylsulfinyl)quinolin-4(1H)-one], the half-inhibitory concentration (IC50) under setting [1] is greater than 2 µM; the IC50 under setting [2] is greater than 2 µM; the half-inhibitory concentration (IC50) under setting [3] was greater than 2 µM; the half-maximal inhibitory concentration (IC50) under setting [4] is greater than 2 µM; the IC50 under setting [5] was greater than 10 µM; the IC50 under setting [6] was greater than 2 µM. Further, the IC50 is greater than 2 µM under setting [7], greater than 2 µM under setting [8] and greater than 2 µM under setting [9].
As for `CC(=O)c1c([S+]([O-])C(C)c2ccccc2)[nH]c2c(Br)ccc(Cl)c2c1=O` (stereo not drawn) [Compound 26, 3-acetyl-8-bromo-5-chloro-2-((1-phenylethyl)sulfinyl)quinolin-4(1H)-one], the IC50 runs as follows: under setting [1], greater than 2 µM; under setting [2], greater than 2 µM; under setting [3], greater than 2 µM; under setting [4], greater than 2 µM; under setting [5], greater than 10 µM; under setting [6], greater than 2 µM. For the same compound, the IC50 is, setting by setting: under setting [7], greater than 2 µM; under setting [8], greater than 2 µM; under setting [9], 1.79 µM.
On to `CC(=O)c1c(SCc2cccc(C#N)c2)[nH]c2c(Br)ccc(Cl)c2c1=O` [Compound 27, 3-(((3-acetyl-8-bromo-5-chloro-4-oxo-1,4-dihydroquinolin-2-yl)thio)methyl)benzonitrile], for which the IC50 under setting [1] is greater than 2 µM; the IC50 under setting [2] is greater than 2 µM; the IC50 under setting [3] is greater than 2 µM; the IC50 under setting [4] is greater than 2 µM; the IC50 under setting [5] is greater than 10 µM; the IC50 under setting [6] was greater than 2 µM. Further, the half-inhibitory concentration (IC50) is greater than 2 µM under setting [7], greater than 2 µM under setting [8] and greater than 2 µM under setting [9].
For the compound `CC(=O)c1c([S+]([O-])Cc2cccc(C#N)c2)[nH]c2c(Br)ccc(Cl)c2c1=O` (stereo not drawn) [Compound 28, 3-(((3-acetyl-8-bromo-5-chloro-4-oxo-1,4-dihydroquinolin-2-yl)sulfinyl)methyl)benzonitrile], the half-maximal inhibitory concentration (IC50) by setting is: under setting [1], 0.94 µM; under setting [2], 0.96 µM; under setting [3], 1.3 µM; under setting [4], 1.06 µM; under setting [5], greater than 10 µM; under setting [6], 1.9 µM. Besides, the IC50 came out at 1.22 µM under setting [7], 1.09 µM under setting [8] and 1.09 µM under setting [9].
Turning to `CC(=O)c1c(SCc2ccc(F)c(Cl)c2)[nH]c2c(Br)ccc(Cl)c2c1=O` [Compound 30, 3-acetyl-8-bromo-5-chloro-2-((3-chloro-4-fluorobenzyl)thio)quinolin-4(1H)-one], the 50% inhibitory concentration (IC50) under setting [1] was greater than 2 µM; the IC50 under setting [2] is greater than 2 µM; the IC50 under setting [3] is greater than 2 µM; the IC50 under setting [4] is greater than 2 µM; the IC50 under setting [5] is greater than 10 µM; the 50% inhibitory concentration (IC50) under setting [6] was greater than 2 µM. Besides, the IC50 was greater than 2 µM under setting [7], greater than 2 µM under setting [8] and greater than 2 µM under setting [9].
`CC(=O)c1c(SCc2ccc([N+](=O)[O-])cc2)[nH]c2c(Br)ccc(Cl)c2c1=O` [Compound 32, 3-acetyl-8-bromo-5-chloro-2-((4-nitrobenzyl)thio)quinolin-4(1H)-one]: the half-maximal inhibitory concentration (IC50) by setting is: under setting [1], greater than 2 µM; under setting [2], greater than 2 µM; under setting [3], greater than 2 µM; under setting [4], greater than 2 µM; under setting [5], greater than 10 µM; under setting [6], greater than 2 µM. The half-maximal inhibitory concentration (IC50) under setting [7] is greater than 2 µM, the half-maximal inhibitory concentration (IC50) under setting [8] was greater than 2 µM and the IC50 under setting [9] was greater than 2 µM.
As for `CSc1c(C(C)=O)c(=O)c2c(Cl)ccc(Br)c2n1S(C)(=O)=O` [Compound 35, 3-acetyl-8-bromo-5-chloro-1-(methylsulfonyl)-2-(methylthio)quinolin-4(1H)-one], the IC50 reads like this: under setting [1], greater than 2 µM; under setting [2], greater than 2 µM; under setting [3], greater than 2 µM; under setting [4], greater than 2 µM; under setting [5], greater than 10 µM; under setting [6], greater than 2 µM. The IC50 under setting [7] was greater than 2 µM, the IC50 under setting [8] is greater than 2 µM and the half-inhibitory concentration (IC50) under setting [9] was greater than 2 µM.
Regarding `CC(=O)c1c([S+](C)[O-])n(S(=O)(=O)C(F)(F)F)c2c(Br)ccc(Cl)c2c1=O` (stereo not drawn) [Compound 36, 3-acetyl-8-bromo-5-chloro-2-(methylsulfinyl)-1-((trifluoromethyl)sulfonyl)quinolin-4(1H)-one], the concentration for half-maximal inhibition (IC50) runs as follows: under setting [1], greater than 2 µM; under setting [2], greater than 2 µM; under setting [3], greater than 2 µM; under setting [4], greater than 2 µM; under setting [5], greater than 10 µM; under setting [6], greater than 2 µM. In addition, the IC50 by setting is: under setting [7], greater than 2 µM; under setting [8], greater than 2 µM; under setting [9], greater than 2 µM.
As to `CSc1c(C(C)=O)c(=O)c2c(Cl)ccc(Br)c2n1S(=O)(=O)c1ccc(Cl)cc1` [Compound 37, 3-acetyl-8-bromo-5-chloro-1-((4-chlorophenyl)sulfonyl)-2-(methylthio)quinolin-4(1H)-one], the IC50 is greater than 2 µM under setting [1]; greater than 2 µM under setting [2]; greater than 2 µM under setting [3]; greater than 2 µM under setting [4]; greater than 10 µM under setting [5]; greater than 2 µM under setting [6]. The IC50 is greater than 2 µM under setting [7], greater than 2 µM under setting [8] and greater than 2 µM under setting [9].
As for `CSc1c(C(C)=O)c(=O)c2c(Cl)ccc(Br)c2n1S(=O)(=O)c1ccc([N+](=O)[O-])cc1` [Compound 38, 3-acetyl-8-bromo-5-chloro-2-(methylthio)-1-((4-nitrophenyl)sulfonyl)quinolin-4(1H)-one], the 50% inhibitory concentration (IC50) runs as follows: under setting [1], greater than 2 µM; under setting [2], greater than 2 µM; under setting [3], greater than 2 µM; under setting [4], greater than 2 µM; under setting [5], greater than 10 µM; under setting [6], greater than 2 µM. Further, the 50% inhibitory concentration (IC50) reads like this: under setting [7], greater than 2 µM; under setting [8], greater than 2 µM; under setting [9], greater than 2 µM.
As for `CCS(=O)(=O)n1c([S+](C)[O-])c(C(C)=O)c(=O)c2c(Cl)ccc(Br)c21` (stereo not drawn) [Compound 39, 3-acetyl-8-bromo-5-chloro-1-(ethylsulfonyl)-2-(methylsulfinyl)quinolin-4(1H)-one], the IC50 was greater than 2 µM under setting [1]; greater than 2 µM under setting [2]; greater than 2 µM under setting [3]; greater than 2 µM under setting [4]; greater than 10 µM under setting [5]; greater than 2 µM under setting [6]. For the same compound, the IC50 is, setting by setting: under setting [7], greater than 2 µM; under setting [8], greater than 2 µM; under setting [9], greater than 2 µM.
In the case of `CSc1c(C(C)=O)c(=O)c2c(Cl)ccc(Br)c2n1S(=O)(=O)c1ccc(C(C)(C)C)cc1` [Compound 40, 3-acetyl-8-bromo-1-((4-(tert-butyl)phenyl)sulfonyl)-5-chloro-2-(methylthio)quinolin-4(1H)-one], the IC50 runs as follows: under setting [1], greater than 2 µM; under setting [2], greater than 2 µM; under setting [3], greater than 2 µM; under setting [4], greater than 2 µM; under setting [5], greater than 10 µM; under setting [6], greater than 2 µM. In addition, the IC50 runs as follows: under setting [7], greater than 2 µM; under setting [8], greater than 2 µM; under setting [9], greater than 2 µM.
Turning to `CC(=O)c1c(S(C)(=O)=O)n(S(=O)(=O)c2ccc(C(C)(C)C)cc2)c2c(Br)ccc(Cl)c2c1=O` [Compound 41, 3-acetyl-8-bromo-1-((4-(tert-butyl)phenyl)sulfonyl)-5-chloro-2-(methylsulfonyl)quinolin-4(1H)-one], the IC50 is, setting by setting: under setting [1], greater than 2 µM; under setting [2], greater than 2 µM; under setting [3], greater than 2 µM; under setting [4], greater than 2 µM; under setting [5], greater than 10 µM; under setting [6], greater than 2 µM. The IC50 runs as follows: under setting [7], greater than 2 µM; under setting [8], greater than 2 µM; under setting [9], greater than 2 µM.
On to `CC(=O)c1c([S+](C)[O-])n(S(=O)(=O)c2ccc(C(C)(C)C)cc2)c2c(Br)ccc(Cl)c2c1=O` (stereo not drawn) [Compound 42, 3-acetyl-8-bromo-1-((4-(tert-butyl)phenyl)sulfonyl)-5-chloro-2-(methylsulfinyl)quinolin-4(1H)-one], for which the concentration for half-maximal inhibition (IC50) under setting [1] came out at 1.96 µM; the IC50 under setting [2] was greater than 2 µM; the IC50 under setting [3] was greater than 2 µM; the IC50 under setting [4] is greater than 2 µM; the IC50 under setting [5] was greater than 10 µM; the IC50 under setting [6] was greater than 2 µM. The concentration for half-maximal inhibition (IC50) is, setting by setting: under setting [7], greater than 2 µM; under setting [8], greater than 2 µM; under setting [9], greater than 2 µM.
